One data set concerns the target D(3) dopamine receptor (Homo sapiens, UniProt P35462). The data set is described as follows: biochemical.
The target in another data set is D(2) dopamine receptor (Homo sapiens, UniProt P14416). The data set is described as follows: biochemical.
Data set [1] in a line: Oral bioavailability in rat. In kind it is ADME, organism-based. The settings on record: in vivo.

A value given as a limit tells only on which side of the number the result lay.

D(3) dopamine receptor, sequence (P35462 whole entry): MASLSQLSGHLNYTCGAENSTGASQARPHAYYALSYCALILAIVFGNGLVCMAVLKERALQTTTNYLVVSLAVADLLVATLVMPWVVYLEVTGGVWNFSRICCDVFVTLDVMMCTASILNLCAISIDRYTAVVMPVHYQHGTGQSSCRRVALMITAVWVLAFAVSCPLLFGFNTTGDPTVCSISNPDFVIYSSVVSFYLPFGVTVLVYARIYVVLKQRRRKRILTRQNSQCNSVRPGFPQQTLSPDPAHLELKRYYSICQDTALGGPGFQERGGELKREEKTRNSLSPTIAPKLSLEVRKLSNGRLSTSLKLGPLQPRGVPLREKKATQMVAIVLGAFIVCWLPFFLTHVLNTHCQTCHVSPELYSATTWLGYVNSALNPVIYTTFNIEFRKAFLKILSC
D(2) dopamine receptor, sequence (P14416 whole entry): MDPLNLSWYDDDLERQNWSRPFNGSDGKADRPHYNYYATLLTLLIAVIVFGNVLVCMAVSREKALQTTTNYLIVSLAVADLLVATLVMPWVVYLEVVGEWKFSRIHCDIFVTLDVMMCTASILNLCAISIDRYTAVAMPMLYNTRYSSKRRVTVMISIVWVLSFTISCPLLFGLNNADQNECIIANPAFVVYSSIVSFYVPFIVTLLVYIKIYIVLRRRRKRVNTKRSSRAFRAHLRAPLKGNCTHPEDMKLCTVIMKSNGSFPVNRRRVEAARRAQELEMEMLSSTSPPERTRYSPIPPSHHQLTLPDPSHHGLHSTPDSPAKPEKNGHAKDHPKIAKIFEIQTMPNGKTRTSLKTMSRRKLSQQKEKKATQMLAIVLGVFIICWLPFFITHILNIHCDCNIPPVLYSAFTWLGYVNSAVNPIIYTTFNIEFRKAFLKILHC
Description for D(2) dopamine receptor: In vitro binding affinity at human Dopamine receptor D2 expressed in CHO K1 cells was measured by its ability to displace [3H]- N-0437
Description for D(3) dopamine receptor: In vitro binding affinity at human Dopamine receptor D3 expressed in CHO K1 cells was measured by its ability to displace [3H]spiperone

For `CCCN1CCOC2c3ccsc3CCC21` (stereo unspecified), the Ki (usually a measure of affinity in units of concentration, obtained from inhibition or displacement) on D(3) dopamine receptor is 240 nM; at D(2) dopamine receptor, 630 nM.

Turning to `CCCN(CCC)[C@@H]1Cc2cccc(O)c2C[C@H]1C`, the Ki was determined as 0.54 nM on D(3) dopamine receptor and 14 nM on D(2) dopamine receptor.

Turning to `Oc1ccc2c(c1)C1OCCN(CCc3cccs3)C1CC2` (racemic), the Ki on D(3) dopamine receptor stood at 83 nM; at D(2) dopamine receptor, 3680 nM.

For the compound `CCCN(CCC)C1CCc2sccc2C1` (stereo unspecified), in data set [1], the bioavailability – broadly, the share of a dose that reaches the circulation, judged against a reference dose that is usually intravenous – was over 10%. In addition, the values for the Ki at D(3) dopamine receptor and on D(2) dopamine receptor were 40 nM and 20 nM, respectively.

Regarding `CCCN(CCc1ccsc1)CCc1cccs1`, the figures for the Ki on D(3) dopamine receptor and on D(2) dopamine receptor were 117 nM and 1080 nM, respectively.

With `CCCN(CCC)CC1CCc2sccc2C1` (stereo unspecified), the Ki at D(3) dopamine receptor is 247 nM; on D(2) dopamine receptor it was 2040 nM.

As to `CCCN1CC(c2ccccc2)OC2c3cc(O)ccc3CCC21` (racemic), the Ki was 12 nM on D(3) dopamine receptor and 375 nM on D(2) dopamine receptor.

Turning to `Oc1ccc2c(c1)C1OCCN(CCc3ccccc3)C1CC2` (racemic), the Ki on D(3) dopamine receptor is 1570 nM; on D(2) dopamine receptor it was over 3680 nM.

On to `CCCN(CCC)C1CCc2ccsc2C1` (stereo unspecified), for which the bioavailability in data set [1] was found to be 10%. Further, the Ki was determined as 28 nM at D(3) dopamine receptor and 27 nM at D(2) dopamine receptor.

Consider `CCCN(CCC)CC1CCc2ccsc2C1` (stereo unspecified), for which the Ki on D(3) dopamine receptor turned out to be 60 nM; on D(2) dopamine receptor it was 3110 nM.

Regarding `c1cc2c(s1)CCC1NCCOC21` (stereo unspecified), the figures for the Ki at D(3) dopamine receptor and on D(2) dopamine receptor were 3000 nM and over 4780 nM, respectively.

Regarding `CCCN(CCc1ccsc1)CCc1ccsc1`, the Ki on D(3) dopamine receptor was 108 nM; at D(2) dopamine receptor, 439 nM.

(Values after ChEMBL document CHEMBL1135499, “Further characterization of structural requirements for ligands at the dopamine D(2) and D(3) receptor: exploring the thiophene moiety” (J Med Chem, 2002).)
